Assay results reported in article PMC3403540, “Active Hydrophilic Components of the Medicinal Herb Salvia miltiorrhiza (Danshen) Potently Inhibit Organic Anion Transporters 1 (Slc22a6) and 3 (Slc22a8)” (Evidence-based Complementary and Alternative Medicine : eCAM, 2012).

Assays:
mOat1 = target: T1, mOat1 (Mus musculus, UniProt Q8VC69); test: Inhibition of mOat1-mediated [3H]PAH uptake in CHO-mOat1 cells (cell accumulation assay); assay type: cell-based, murine; conditions: for Estimated α value from mixed inhibition model analysis, mOat1: 5 μM PAH for 2 min, mean, α > 1 indicates competitive inhibition; for Ki / inhibition at 1000 µM: 5 μM [3H]PAH; for Ki: 2 min, CHO-mOat1, mean ± S.E.M. (n = 3), from IC50 via Cheng-Prusoff, read-out: Estimated K i for mOat1-mediated transport; for inhibition at 1000 µM: 1 mM (1000 μM) inhibitor, 10 min, CHO-mOat1 cells, read-out: inhibition of mOat1-mediated PAH uptake; for mode of inhibition of mOat1-mediated transport: mixed inhibition model, PAH substrate; for K i ratio (mOat1/mOat3): ratio of Ki on mOat1 to Ki on mOat3
T1 construct: expressed in transfected cells; host or cells: CHO (Chinese hamster ovary), stably transfected (CHO-mOat1)
T1 sequence (Q8VC69 1-545): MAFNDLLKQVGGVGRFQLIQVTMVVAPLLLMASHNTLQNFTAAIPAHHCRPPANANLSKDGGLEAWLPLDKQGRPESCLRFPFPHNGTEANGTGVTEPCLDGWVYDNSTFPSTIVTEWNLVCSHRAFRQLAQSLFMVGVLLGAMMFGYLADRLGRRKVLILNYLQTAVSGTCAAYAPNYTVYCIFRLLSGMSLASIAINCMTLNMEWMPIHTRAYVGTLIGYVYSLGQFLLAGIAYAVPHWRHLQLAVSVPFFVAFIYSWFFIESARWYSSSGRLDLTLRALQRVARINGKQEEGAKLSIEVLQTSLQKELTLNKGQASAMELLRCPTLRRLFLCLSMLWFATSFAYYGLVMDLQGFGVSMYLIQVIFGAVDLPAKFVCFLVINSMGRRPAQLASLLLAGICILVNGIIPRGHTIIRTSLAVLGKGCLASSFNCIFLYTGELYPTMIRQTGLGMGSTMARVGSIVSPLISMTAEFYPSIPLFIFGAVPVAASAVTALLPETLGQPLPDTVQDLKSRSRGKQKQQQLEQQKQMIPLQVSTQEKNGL
Protocol: Derivation of the stably transfected Chinese hamster ovary (CHO) cell lines expressing mOat1 (CHO-mOat1), mOat3 (CHO-mOat3), and the empty vector (FRT) transfected control cell line (CHO-FRT) was described previously.
Cell transport assay procedures were adapted from those previously published. In brief, 2 × 10^5 cells/well were seeded in 24-well tissue culture plates and grown in the absence of antibiotics for 48 hr. On the day of the experiment, cells were equilibrated with transport buffer for 10 min (500 μL of Hanks' balanced salt solution containing 10 mM HEPES, pH 7.4). […] After incubation, cells were immediately rinsed three times with ice-cold transport buffer, lysed, and analyzed via liquid scintillation counting. Uptake values were normalized to corresponding total protein content in cell lysates as determined by the Bradford method. Substrate accumulation is reported as picomoles of substrate per milligram protein. […] Kinetic calculations were performed using GraphPad Prism Software version 5.0 (GraphPad Software Inc., San Diego, CA, USA). Michaelis constant (K m) values were calculated by nonlinear regression using the Michaelis-Menten model. […] In this study, three curves were constructed (no inhibitor, plus two selected inhibitor concentrations) with uptake of substrate plotted as a function of its concentration for each condition. […] The parameter, α, can then be used to determine the mode of inhibition. When α is very large (α > 1), it indicates competitive inhibition. […] Results were confirmed by repeating all experiments at least three times with triplicate wells for each data point in every experiment.
Figure 3 Michaelis-Menten kinetics of PAH transport in CHO-mOat1 cells. In order to calculate K i values for mOat1, the K m value for PAH needed to be determined in the CHO-mOat1 cell system. […] The corrected curve (closed circles) was obtained by subtracting the nonspecific background uptake as measured in the CHO-FRT cells from CHO-mOat1 accumulation to allow analysis of mOat1-mediated activity. Experiments were repeated three times in triplicate, and Michaelis constant (K m) values were calculated by nonlinear regression using the Michaelis-Menten model. […] Graph shown is from a representative experiment with values plotted as mean ± S.D. (n = 3).
Figure 2 Inhibition profile of mOat1 and mOat3. […] (b) Inhibition of mOat3-mediated uptake of [^3H]ES (1 μM) by LSA, PCA, RMA, SAA, SAB, TSL, and probenecid (1000 μM) was measured in the CHO-mOat3 cells (10 min). […] Values are mean ± S.D. of triplicate values. ***denotes P < 0.001 as determined by one-way ANOVA followed by Dunnett's t-test.
Figure 4 K i determination for LSA, RMA, and SAA in the CHO-mOat1 cell line. […] (5 μM) in CHO-mOat1 cells was measured in the presence of increasing concentrations (10^−7 to 5 × 10^−4 M) of LSA, RMA, and SAA. Data were corrected for nonspecific background measured in the CHO-FRT cells prior to kinetic analysis. K i values were determined with non-linear regression and the “one-site competition” model using GraphPad Prism software. Graphs shown are from representative experiments with values plotted as mean ± S.D. (n = 3).

[1] = set-up: method as in PMID 15866491; conditions: healthy humans, i.v. dosing of a Danshen product; cited from earlier work
[2] = rat plasma; cited from earlier work
[3] = rats, cited from earlier work

Structure (SMILES) | Estimated α value from mixed inhibition model analysis, mOat1 (mOat1) | Ki (mOat1) | inhibition at 1000 µM (mOat1) | mode of inhibition of mOat1-mediated transport (mOat1) | K i ratio (mOat1/mOat3) (mOat1) | Cmax [1] | plasma protein binding [2] | increase of AUC on spiking additional SAA into Danshen preparations [3] | reduction of clearance on spiking additional SAA into Danshen preparations [3] | unbound renal clearance relative to glomerular filtration rate ([3]; fold greater than the glomerular filtration rate)
O=C(/C=C/c1ccc(O)c(O)c1)O[C@H](Cc1ccc(O)c(O)c1)C(=O)O [RMA, rosmarinic acid] | 1.3 × 10^12 | 5.5 ± 2.2 µM | > 95% | competitive | 1.29 | 6.7 µM |  |  |  | 
O=C(/C=C/c1ccc(O)c2c1[C@H](C(=O)O)[C@@H](c1ccc(O)c(O)c1)O2)O[C@H](Cc1ccc(O)c(O)c1)C(=O)O [LSA, lithospermic acid] | 6.7 × 10^11 | 14.9 ± 4.9 µM | 70 to 85% | competitive | 0.48 | 2.1 µM |  |  |  | 
O=C(O)C(O)Cc1ccc(O)c(O)c1 (stereo not shown) [TSL, tanshinol] |  |  | 70 to 85% |  |  |  | 25% | 26.7% | 32.9% | ~ 5 X
O=C(/C=C/c1ccc(O)c(O)c1/C=C/c1ccc(O)c(O)c1)O[C@H](Cc1ccc(O)c(O)c1)C(=O)O [SAA, salvianolic acid A] | 2.6 × 10^14 | 4.9 ± 2.2 µM | > 95% | competitive | 0.23 |  |  |  |  | 
